Test [1] addresses Neuronal acetylcholine receptor subunit alpha-4 (Homo sapiens, UniProt P43681).
Test [2] addresses 5-hydroxytryptamine receptor 2B (Homo sapiens, UniProt P41595). The class given is functional, cell-based.
Test [3] has as its target Gamma-aminobutyric acid receptor subunit alpha-1 (Rattus norvegicus, UniProt P62813).
The target in test [4] is 3',5'-cyclic-AMP phosphodiesterase 4D (Homo sapiens, UniProt Q08499). Type of test: functional.
For another test, the target named is D(1A) dopamine receptor (Homo sapiens, UniProt P21728). The class given is functional, cell-based.
D(1A) dopamine receptor, sequence (P21728 whole entry): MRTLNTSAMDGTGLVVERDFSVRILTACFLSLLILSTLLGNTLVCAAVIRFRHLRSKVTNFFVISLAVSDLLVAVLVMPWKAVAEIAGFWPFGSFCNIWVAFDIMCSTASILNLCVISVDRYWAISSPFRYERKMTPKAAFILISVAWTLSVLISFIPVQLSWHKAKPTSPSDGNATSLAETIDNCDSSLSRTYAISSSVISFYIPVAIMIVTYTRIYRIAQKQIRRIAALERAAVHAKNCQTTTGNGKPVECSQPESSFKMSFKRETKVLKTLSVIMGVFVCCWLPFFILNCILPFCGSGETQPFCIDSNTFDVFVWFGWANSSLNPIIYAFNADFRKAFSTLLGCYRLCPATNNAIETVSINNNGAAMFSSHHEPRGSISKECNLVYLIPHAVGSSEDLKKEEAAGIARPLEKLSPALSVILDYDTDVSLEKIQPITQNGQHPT
In another test the target is Cannabinoid receptor 1 (Homo sapiens, UniProt P21554). Type of test: functional, cell-based.
Cannabinoid receptor 1, sequence (P21554 whole entry): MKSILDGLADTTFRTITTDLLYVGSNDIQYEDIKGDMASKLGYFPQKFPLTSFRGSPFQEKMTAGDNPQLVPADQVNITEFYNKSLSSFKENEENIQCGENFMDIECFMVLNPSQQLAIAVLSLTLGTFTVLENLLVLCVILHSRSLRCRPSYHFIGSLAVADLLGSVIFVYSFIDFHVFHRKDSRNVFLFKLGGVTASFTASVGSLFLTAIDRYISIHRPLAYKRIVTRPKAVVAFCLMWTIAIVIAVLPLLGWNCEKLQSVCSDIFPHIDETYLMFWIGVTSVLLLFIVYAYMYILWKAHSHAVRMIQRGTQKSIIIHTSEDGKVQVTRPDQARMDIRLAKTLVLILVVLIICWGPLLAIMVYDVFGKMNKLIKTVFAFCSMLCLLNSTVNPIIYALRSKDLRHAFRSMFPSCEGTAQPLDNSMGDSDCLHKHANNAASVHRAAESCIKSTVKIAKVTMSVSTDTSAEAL
In test [5] the target is T1, Muscarinic acetylcholine receptor M2 (Homo sapiens, UniProt P08172).
T1 sequence (P08172 whole entry): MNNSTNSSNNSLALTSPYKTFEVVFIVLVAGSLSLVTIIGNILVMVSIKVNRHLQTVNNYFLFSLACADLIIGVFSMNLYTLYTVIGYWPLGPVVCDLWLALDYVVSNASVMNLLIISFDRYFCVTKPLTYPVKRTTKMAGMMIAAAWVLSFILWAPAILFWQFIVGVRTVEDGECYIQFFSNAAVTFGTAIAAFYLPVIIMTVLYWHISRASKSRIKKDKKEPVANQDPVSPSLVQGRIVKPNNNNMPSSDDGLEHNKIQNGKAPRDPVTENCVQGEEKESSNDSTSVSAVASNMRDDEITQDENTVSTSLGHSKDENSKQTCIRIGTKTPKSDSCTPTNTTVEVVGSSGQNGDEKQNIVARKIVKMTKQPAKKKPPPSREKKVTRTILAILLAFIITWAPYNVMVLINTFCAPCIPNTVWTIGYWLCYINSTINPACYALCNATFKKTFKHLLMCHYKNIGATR
Type of test: functional, cell-based.

Test [6] addresses Sodium-dependent noradrenaline transporter (Homo sapiens, UniProt P23975).
Test [7] concerns the target Delta-type opioid receptor (Homo sapiens, UniProt P41143).
In test [8] the target is T2, Alpha-2A adrenergic receptor (Homo sapiens, UniProt P08913).
T2 sequence (P08913 whole entry): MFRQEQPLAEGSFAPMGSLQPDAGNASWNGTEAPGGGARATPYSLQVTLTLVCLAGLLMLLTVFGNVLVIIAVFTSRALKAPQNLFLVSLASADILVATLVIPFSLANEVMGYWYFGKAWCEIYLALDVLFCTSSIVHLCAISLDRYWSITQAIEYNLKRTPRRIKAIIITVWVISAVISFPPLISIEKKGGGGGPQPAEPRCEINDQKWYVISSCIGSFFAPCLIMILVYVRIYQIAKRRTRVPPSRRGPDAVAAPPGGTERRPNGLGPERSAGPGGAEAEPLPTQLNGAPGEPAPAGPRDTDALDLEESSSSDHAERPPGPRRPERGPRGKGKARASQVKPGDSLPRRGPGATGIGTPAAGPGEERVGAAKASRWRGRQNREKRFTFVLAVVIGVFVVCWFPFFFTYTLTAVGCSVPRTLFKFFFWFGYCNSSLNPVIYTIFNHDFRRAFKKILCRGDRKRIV
The class given is functional, cell-based.

Test [9] addresses T2, Alpha-2A adrenergic receptor. Type of test: functional, cell-based. This is another data set of the same source.
Another test concerns the target T3, B2 bradykinin receptor (Homo sapiens, UniProt P30411).
T3 sequence (P30411 whole entry): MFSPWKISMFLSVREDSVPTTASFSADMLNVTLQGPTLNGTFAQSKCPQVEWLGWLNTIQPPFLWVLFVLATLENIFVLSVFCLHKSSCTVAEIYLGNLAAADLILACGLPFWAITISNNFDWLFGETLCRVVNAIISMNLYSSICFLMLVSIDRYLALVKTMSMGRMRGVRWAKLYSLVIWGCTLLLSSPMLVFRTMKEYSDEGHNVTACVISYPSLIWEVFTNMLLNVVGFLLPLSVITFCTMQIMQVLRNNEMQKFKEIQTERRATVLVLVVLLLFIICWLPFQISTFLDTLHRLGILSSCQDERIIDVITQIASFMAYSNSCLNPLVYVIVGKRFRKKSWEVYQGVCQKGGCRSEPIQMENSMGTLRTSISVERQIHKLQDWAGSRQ

A further test deals with T4, Adenosine receptor A1 (Homo sapiens, UniProt P30542).
T4 sequence (P30542 whole entry): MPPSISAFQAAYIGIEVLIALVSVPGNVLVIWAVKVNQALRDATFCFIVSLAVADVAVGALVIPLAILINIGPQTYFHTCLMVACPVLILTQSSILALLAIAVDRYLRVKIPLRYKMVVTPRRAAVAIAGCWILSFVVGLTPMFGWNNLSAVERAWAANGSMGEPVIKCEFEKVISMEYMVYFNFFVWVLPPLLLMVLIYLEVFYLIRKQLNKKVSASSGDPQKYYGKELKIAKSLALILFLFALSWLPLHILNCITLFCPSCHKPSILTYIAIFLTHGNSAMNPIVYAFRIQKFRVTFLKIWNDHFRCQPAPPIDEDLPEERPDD

Test [10] concerns the target T5, Prostaglandin G/H synthase 1 (Rattus norvegicus, UniProt Q63921).
T5 sequence (Q63921 whole entry): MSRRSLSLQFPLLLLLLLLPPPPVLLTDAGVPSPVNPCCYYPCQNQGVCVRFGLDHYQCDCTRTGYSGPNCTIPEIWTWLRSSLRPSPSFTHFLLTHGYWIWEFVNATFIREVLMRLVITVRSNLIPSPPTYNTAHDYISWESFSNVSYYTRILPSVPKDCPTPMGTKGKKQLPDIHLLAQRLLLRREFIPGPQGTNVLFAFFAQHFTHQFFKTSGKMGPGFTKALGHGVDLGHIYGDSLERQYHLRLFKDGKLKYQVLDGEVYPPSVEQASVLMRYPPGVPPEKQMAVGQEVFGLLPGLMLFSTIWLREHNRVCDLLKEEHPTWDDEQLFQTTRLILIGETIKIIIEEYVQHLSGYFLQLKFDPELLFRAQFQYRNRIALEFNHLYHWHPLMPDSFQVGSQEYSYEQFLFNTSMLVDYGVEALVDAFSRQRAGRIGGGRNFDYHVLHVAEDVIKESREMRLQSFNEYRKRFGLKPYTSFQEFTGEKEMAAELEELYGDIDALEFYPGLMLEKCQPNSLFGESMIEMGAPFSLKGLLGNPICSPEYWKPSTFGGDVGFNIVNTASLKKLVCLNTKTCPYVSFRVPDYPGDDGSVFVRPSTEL
Type of test: functional.

Another test concerns the target Histamine H1 receptor (Homo sapiens, UniProt P35367).

Structures are written as SMILES.
Further: assay procedure not described here.

5-hydroxytryptamine receptor 2B, sequence (P41595 whole entry): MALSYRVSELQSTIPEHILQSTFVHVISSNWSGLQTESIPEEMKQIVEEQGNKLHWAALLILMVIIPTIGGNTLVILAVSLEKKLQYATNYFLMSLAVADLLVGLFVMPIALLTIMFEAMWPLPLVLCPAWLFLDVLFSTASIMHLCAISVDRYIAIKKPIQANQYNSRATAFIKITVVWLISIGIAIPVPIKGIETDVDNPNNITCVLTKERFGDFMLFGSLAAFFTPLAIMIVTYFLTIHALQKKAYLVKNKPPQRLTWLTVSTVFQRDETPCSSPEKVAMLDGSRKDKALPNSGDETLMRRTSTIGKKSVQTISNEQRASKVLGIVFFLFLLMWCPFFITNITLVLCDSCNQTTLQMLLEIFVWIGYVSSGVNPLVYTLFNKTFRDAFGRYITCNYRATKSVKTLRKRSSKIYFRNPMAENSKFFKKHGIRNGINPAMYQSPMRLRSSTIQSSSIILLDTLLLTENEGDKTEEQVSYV
3',5'-cyclic-AMP phosphodiesterase 4D, sequence (Q08499 whole entry): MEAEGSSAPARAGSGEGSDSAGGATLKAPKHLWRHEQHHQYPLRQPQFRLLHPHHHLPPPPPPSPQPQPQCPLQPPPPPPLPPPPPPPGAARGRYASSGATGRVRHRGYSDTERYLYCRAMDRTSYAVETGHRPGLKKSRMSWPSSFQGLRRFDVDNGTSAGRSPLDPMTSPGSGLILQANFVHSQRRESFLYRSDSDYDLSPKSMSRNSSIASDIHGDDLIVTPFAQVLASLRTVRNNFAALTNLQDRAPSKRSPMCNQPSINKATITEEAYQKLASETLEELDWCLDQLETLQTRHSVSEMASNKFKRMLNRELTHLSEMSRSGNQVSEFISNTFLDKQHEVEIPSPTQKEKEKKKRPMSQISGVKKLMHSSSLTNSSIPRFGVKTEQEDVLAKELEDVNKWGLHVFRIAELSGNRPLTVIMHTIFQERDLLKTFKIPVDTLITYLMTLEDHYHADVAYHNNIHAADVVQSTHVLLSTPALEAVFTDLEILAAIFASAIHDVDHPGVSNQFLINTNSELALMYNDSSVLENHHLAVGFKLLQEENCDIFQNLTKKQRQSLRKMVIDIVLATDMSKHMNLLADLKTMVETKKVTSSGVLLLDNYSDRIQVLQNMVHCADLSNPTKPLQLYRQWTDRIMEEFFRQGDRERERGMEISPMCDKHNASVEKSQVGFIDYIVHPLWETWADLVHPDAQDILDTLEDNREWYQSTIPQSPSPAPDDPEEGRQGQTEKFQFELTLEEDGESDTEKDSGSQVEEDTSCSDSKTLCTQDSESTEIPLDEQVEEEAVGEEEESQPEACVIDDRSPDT
Gamma-aminobutyric acid receptor subunit alpha-1, sequence (P62813 whole entry): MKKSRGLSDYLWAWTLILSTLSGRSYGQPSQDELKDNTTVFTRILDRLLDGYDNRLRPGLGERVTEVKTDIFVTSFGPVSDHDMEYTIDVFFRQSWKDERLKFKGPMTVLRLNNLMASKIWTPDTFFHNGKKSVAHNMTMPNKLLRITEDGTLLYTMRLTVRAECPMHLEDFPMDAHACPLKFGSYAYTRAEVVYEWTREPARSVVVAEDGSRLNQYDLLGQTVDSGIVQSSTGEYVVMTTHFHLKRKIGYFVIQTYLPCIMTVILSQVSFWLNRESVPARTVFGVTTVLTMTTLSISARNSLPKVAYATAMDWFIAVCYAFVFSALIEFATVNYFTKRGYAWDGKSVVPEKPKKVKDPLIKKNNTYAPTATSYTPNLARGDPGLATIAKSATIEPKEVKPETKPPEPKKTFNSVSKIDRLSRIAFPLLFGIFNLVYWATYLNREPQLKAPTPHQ
Neuronal acetylcholine receptor subunit alpha-4, sequence (P43681 whole entry): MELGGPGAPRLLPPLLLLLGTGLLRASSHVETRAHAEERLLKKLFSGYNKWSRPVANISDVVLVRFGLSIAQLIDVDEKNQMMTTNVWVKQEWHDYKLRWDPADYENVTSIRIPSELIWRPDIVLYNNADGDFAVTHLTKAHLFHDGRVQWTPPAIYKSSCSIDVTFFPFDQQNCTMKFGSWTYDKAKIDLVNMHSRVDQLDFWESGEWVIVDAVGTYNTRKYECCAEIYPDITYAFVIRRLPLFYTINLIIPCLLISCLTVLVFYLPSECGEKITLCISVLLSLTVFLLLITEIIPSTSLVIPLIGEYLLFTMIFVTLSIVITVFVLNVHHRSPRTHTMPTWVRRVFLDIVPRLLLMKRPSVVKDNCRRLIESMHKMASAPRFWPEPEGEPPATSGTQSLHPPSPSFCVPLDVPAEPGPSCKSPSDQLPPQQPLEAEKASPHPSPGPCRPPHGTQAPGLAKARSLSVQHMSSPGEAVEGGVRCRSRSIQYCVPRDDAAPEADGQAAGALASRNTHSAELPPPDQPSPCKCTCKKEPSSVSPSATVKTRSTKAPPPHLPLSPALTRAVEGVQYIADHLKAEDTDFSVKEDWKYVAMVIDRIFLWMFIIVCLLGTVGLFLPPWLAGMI
Sodium-dependent noradrenaline transporter, sequence (P23975 whole entry): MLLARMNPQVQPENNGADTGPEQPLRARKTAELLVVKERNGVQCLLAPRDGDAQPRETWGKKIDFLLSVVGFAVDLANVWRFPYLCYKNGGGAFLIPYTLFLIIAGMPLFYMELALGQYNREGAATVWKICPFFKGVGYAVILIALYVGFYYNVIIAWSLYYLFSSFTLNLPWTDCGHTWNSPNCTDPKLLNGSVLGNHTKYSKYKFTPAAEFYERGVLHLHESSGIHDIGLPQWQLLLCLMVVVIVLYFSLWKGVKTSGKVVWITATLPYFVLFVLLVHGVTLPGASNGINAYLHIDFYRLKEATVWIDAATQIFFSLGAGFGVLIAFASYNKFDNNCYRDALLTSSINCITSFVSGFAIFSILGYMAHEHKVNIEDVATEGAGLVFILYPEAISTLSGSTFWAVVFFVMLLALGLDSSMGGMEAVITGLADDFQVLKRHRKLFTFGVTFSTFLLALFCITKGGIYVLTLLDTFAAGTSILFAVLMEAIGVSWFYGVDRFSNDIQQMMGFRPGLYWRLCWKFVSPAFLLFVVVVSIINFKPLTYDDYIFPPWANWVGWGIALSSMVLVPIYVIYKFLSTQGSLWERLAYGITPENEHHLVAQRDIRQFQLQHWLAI
Delta-type opioid receptor, sequence (P41143 whole entry): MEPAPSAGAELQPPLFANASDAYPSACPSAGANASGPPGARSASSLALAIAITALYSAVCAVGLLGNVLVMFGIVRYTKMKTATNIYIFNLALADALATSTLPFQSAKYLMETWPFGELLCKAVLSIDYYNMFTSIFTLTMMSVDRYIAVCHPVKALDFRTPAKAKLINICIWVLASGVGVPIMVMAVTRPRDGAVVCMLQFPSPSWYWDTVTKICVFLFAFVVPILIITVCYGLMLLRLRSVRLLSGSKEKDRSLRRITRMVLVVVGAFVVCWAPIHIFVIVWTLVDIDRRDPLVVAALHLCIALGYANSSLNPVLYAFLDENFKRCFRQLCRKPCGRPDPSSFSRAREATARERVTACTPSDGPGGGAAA
Histamine H1 receptor, sequence (P35367 whole entry): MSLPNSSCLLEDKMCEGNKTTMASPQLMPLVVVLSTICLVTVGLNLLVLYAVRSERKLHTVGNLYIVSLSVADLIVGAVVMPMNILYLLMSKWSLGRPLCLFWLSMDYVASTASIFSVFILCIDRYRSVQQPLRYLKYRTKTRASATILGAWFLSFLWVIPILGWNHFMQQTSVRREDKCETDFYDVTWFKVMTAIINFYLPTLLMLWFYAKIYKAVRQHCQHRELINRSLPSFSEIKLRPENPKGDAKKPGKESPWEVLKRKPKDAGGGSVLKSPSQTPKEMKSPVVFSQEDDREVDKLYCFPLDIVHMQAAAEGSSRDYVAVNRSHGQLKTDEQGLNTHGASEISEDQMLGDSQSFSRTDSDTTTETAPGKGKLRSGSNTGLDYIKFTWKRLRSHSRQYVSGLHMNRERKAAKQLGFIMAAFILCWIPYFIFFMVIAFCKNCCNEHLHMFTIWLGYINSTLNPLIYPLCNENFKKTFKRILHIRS

A word on the AC50: it is the midpoint of the concentration-response curve, whichever way the signal moves. As for `COc1cccc2c1C(=O)c1c(O)c3c(c(O)c1C2=O)C[C@@](O)(C(=O)CO)C[C@@H]3O[C@H]1C[C@H](N)[C@H](O)[C@H](C)O1` [DOXORUBICIN], the concentration at half-maximal activity (AC50) in test [1] is > 30 µM; in [2], 15 µM; in [3], > 10 µM; in test [4] it was > 30 µM; at D(1A) dopamine receptor, > 30 µM; on Cannabinoid receptor 1, > 30 µM. Moreover, the AC50 was > 10 µM in test [5]; > 30 µM in test [6]; > 30 µM in [7]; > 10 µM in test [8]; 12 µM in test [9]; > 30 µM on B2 bradykinin receptor. Further, the half-maximal activity concentration (AC50) (at Adenosine receptor A1; in test [10]) was > 30 µM in each case.

In the case of `C[C@]12CCC(=O)C=C1[C@@H]1C[C@@H]1[C@H]1[C@@H]3[C@@H]4C[C@@H]4[C@@]4(CCC(=O)O4)[C@@]3(C)CC[C@@H]12` [DROSPIRENONE], the AC50 in test [1] was > 30 µM; on Histamine H1 receptor, > 30 µM; in test [3] it was > 30 µM; in [4], > 30 µM; at D(1A) dopamine receptor, > 30 µM; in test [5], 13 µM. For the same molecule, the concentration at half-maximal activity (AC50) (in [6]; in test [7]; in test [9]; at B2 bradykinin receptor; at Adenosine receptor A1; in test [10]) was > 30 µM in each case.

For the molecule `CCn1c(=O)c2c(nc(/C=C/c3ccc(OC)c(OC)c3)n2C)n(CC)c1=O` [ISTRADEFYLLINE], the AC50 was > 30 µM in test [1]; > 30 µM at Histamine H1 receptor; 1.8 µM in test [4]; > 30 µM in test [5]; > 30 µM in test [6]; 23 µM on Adenosine receptor A1. Besides, the half-maximal activity concentration (AC50) in [10] is > 30 µM.

For the molecule `CN1C(C(=O)Nc2ccccn2)=C(OC(=O)/C=C/c2ccccc2)c2ccccc2S1(=O)=O` [PIROXICAM CINNAMATE], the concentration at half-maximal activity (AC50) in test [10] was > 300 µM.

Consider `C[C@]12C=CC(=O)C=C1CC[C@@H]1[C@@H]2[C@@H](O)C[C@@]2(C)[C@H]1CC[C@]2(O)C(=O)CO` [PREDNISOLONE], for which the AC50 in [1] was > 10 µM; in [2], > 10 µM; in test [3] it was > 10 µM; in [4], > 30 µM; at D(1A) dopamine receptor, > 10 µM; at Cannabinoid receptor 1, > 30 µM. In addition, the AC50 in test [5] was > 10 µM; in [6], > 30 µM; in [7], > 30 µM; in test [8], > 10 µM; in test [9] it was > 10 µM; at B2 bradykinin receptor, > 30 µM. Moreover, the AC50 (on Adenosine receptor A1; in test [10]) was > 30 µM in each case.

With `CCC(=O)c1ccc2c(c1)N(CC(C)N(C)C)c1ccccc1S2` (stereo not given) [PROPIOMAZINE], the AC50 was > 10 µM in [1]; 0.23 µM in test [2]; 0.034 µM at Histamine H1 receptor; > 10 µM in test [3]; > 10 µM in test [4]; > 10 µM at D(1A) dopamine receptor. The AC50 in test [5] was > 10 µM; in test [6], > 10 µM; in [7], > 30 µM; in [8] it was > 10 µM; in test [9], > 10 µM; on B2 bradykinin receptor, > 10 µM. The AC50 (at Adenosine receptor A1; in [10]) was > 10 µM each time.

In the case of `Cc1cn(-c2cc(NC(=O)c3ccc(C)c(Nc4nccc(-c5cnccn5)n4)c3)cc(C(F)(F)F)c2)cn1` [RADOTINIB], the AC50 in [1] was 27 µM; at Histamine H1 receptor, > 30 µM; in [4], > 30 µM; in [5], > 30 µM; in test [6], > 30 µM; in [10] it was > 30 µM.

Turning to `Cc1ccc(O)c([C@H](CCN(C(C)C)C(C)C)c2ccccc2)c1` [TOLTERODINE], the half-maximal activity concentration (AC50) in [1] is > 10 µM; in [2] it was > 10 µM; at Histamine H1 receptor, 4.06 µM; in test [3] it was > 30 µM; on D(1A) dopamine receptor, > 10 µM; at Cannabinoid receptor 1, > 30 µM. In addition, the AC50 in [6], in [7], in [8] and in test [9] was > 10 µM throughout.

For `CC1(C)O[C@@H]2C[C@H]3[C@@H]4CCC5=CC(=O)C=C[C@]5(C)[C@@]4(F)[C@@H](O)C[C@]3(C)[C@]2(C(=O)CO)O1` [TRIAMCINOLONE ACETONIDE], the AC50 (in [1]; in test [2]; in test [3]; in [4]; at D(1A) dopamine receptor; on Cannabinoid receptor 1) was > 30 µM in each case. Further, the half-maximal activity concentration (AC50) (in test [5]; in test [7]; in [8]; in test [9]; on B2 bradykinin receptor; on Adenosine receptor A1) was > 30 µM in each case. Also, the AC50 in test [10] was > 30 µM.

For `Oc1cc(Cl)ccc1Oc1ccc(Cl)cc1Cl` [TRICLOSAN], the half-maximal activity concentration (AC50) in test [1] is > 30 µM; in test [2] it was > 30 µM; at Histamine H1 receptor it was > 30 µM; in test [3] it was > 10 µM; in test [4], > 30 µM; on D(1A) dopamine receptor, > 30 µM. For the same molecule, the concentration at half-maximal activity (AC50) at Cannabinoid receptor 1 was > 30 µM; in [6] it was 0.7 µM; in test [7], > 30 µM; in [8] it was > 30 µM; in test [9] it was > 30 µM; at B2 bradykinin receptor it was > 30 µM. For the same molecule, the AC50 (on Adenosine receptor A1; in test [10]) was > 30 µM throughout.

For the origin of these results see ChEMBL document CHEMBL5291721, “A preclinical secondary pharmacology resource illuminates target-adverse drug reaction associations of marketed drugs” (Nat Commun, 2023).
